Results taken from patent US20240343720A1, “AAK1 INHIBITOR AND USE THEREOF” (Xizang Haisco Pharmaceutical Co., Ltd., priority 2021, published 2024).

Target: AAK1 (Homo sapiens (Human), UniProt Q2M2I8)
Assay: In vitro AAK1 enzyme activity assay (ADP-Glo)
Type: biochemical
Conditions: read-out: Inhibitory activity against AAK1 IC50
Method: Compound stock solution (concentration: 10 mM, dissolved in DMSO) was diluted with DMSO to 0.2 mM and then diluted with DMSO in 5-fold gradient to obtain compound solutions with 10 concentrations. Subsequently, the compound solutions with different concentrations were diluted 50-fold in 1×kinase reaction buffer (containing 40 mM Tris, 20 mM MgCl2, 0.1% BSA and 0.5 mM DTT) for later use. AAK1 (Signalchem, Cat #A01-11G-10) was diluted with 1×kinase reaction buffer to 2-fold the final concentration (final concentrations: 30 nM and 28 nM). AAK1 was added to a 384-well white plate at 2 μL/well, and the compounds were then added at 1 μL/well. The plate was sealed with a plate-sealing film, centrifuged at 1000 rpm for 30 seconds and then placed at room temperature for 10 minutes. A mixed solution of ATP (Promega, Cat #V914B) and substrate Micro2 (GenScript, Cat #PE0890) was formulated at 4-fold the final concentration (for AAK1, the corresponding final concentrations of ATP: 15 μM and 5 μM, and the corresponding final concentration of Micro2: 0.1 mg/mL). To the reaction plate was added the mixed solution of ATP and the substrate at 1 μL/well. The plate was sealed with a plate-sealing film and centrifuged at 1000 rpm for 30 seconds. The reaction was carried out at room temperature for 60 minutes (AAK1). ADP-Glo (Promega, Cat #V9102) was transferred to the 384-well plate at 4 μL/well and centrifugation was carried out at 1000 rpm for 1 minute. The mixture was incubated at 25° C. for 40 minutes. A detection solution was transferred to the 384-well plate at 8 μL/well and centrifugation was carried out at 1000 rpm for 1 minute. The resulting mixture was incubated at 25° C. for 40 minutes. The RLU (Relative luminescence unit) signal values were read using a Biotek multilable microplate reader and the percent inhibition was calculated according to the following formula: [1−(LUMcompound−LUMpositive control)/(LUMnegative control−LUMpositive control)]×100. IC50 values were calculated using Graphpad 7.0 software using a four-parameter non-linear fit equation.

AAK1, sequence (Q2M2I8 27-365): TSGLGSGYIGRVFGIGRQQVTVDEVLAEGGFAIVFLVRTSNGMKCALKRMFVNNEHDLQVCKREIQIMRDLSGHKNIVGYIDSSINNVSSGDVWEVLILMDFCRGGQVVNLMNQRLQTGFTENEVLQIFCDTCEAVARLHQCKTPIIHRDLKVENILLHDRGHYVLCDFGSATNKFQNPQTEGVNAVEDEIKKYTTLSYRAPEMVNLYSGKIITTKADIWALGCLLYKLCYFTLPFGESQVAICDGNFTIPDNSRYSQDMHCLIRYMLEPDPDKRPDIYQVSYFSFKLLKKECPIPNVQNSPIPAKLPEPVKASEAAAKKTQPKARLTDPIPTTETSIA

SMILES: C=C(C)C[C@](C)(N)COc1cnc(-c2ccnc(NC(=O)OC)c2)cc1C(F)(F)F [Compound 7, Methyl-(S)-(5-((2-amino-2,4-dimethylpent-4-en-1-yl)oxy)-4-(trifluoromethyl) [2,4′-bipyridin]-2′-yl)carbamate]
- IC50: 0.0138 µM

SMILES: C=C(C)C[C@](C)(N)COc1ccc(-c2ccnc(NC(C)=O)c2)cc1C#N [Compound 5, (S)-N-(4-(4-((2-amino-2,4-dimethylpent-4-en-1-yl)oxy)-3-cyanophenyl)pyridin-2-yl)acetamide]
- IC50: 0.00637 µM

SMILES: C=C(C)C[C@](C)(N)COc1ccc(-c2ccnc(NC(=O)[C@H]3CC3(F)F)c2)cc1C#N [Compound 29, (1R)-N-(4-(4-{[(2S)-2-amino-2,4-dimethylpent-4-en-1-yl]oxy}-3-cyanophenyl)pyridin-2-yl)-2,2-difluorocyclopropane-1-carboxamide]
- IC50: 0.011 µM

SMILES: COC(=O)Nc1cc(-c2cc(C(F)F)c(OC[C@@](C)(N)CC(C)(C)F)cn2)ccn1 [Compound 20, Methyl (S)-(5-((2-amino-4-fluoro-2,4-dimethylpentyl)oxy)-4-(difluoromethyl)-[2,4′-bipyridin]-2′-yl)carbamate]
- IC50: 0.0161 µM

SMILES: NC1(COc2ccc(-c3ccnc(C(F)F)c3)nc2C(F)F)CCCC1 [Compound 22, 1-(((2′,6-bis(difluoromethyl)-[2,4′-bipyridin]-5-yl)oxy)methyl)cyclopentan-1-amine]
- IC50: 0.0321 µM

SMILES: CC(=O)Nc1cc(-c2ccc(OC[C@@](C)(N)CC(C)(C)F)c(C(F)F)n2)ccn1 [Compound 16, (S)-N-(5-((2-amino-4-fluoro-2,4-dimethylpentyl)oxy)-6-(difluoromethyl)-[2,4′-bipyridin]-2′-yl)acetamide]
- IC50: 0.0223 µM

SMILES: CC(N)(COc1ccc(-c2ccnc(C(F)F)c2)nc1C(F)F)CC1(C)CC1 (stereo not drawn) [Compound 2, 1-((2′,6-bis(difluoromethyl)-[2,4′-bipyridin]-5-yl)oxy)-2-methyl-3-(1-methylcyclopropyl) propan-2-amine]
- IC50: 0.00929 µM

SMILES: C=C(C)C[C@](C)(N)COc1ccc(-c2ccnc(NC(=O)[C@H]3C[C@H]3F)c2)cc1C#N [Compound 25, (1R,2R)-N-(4-(4-(((S)-2-amino-2,4-dimethylpent-4-en-1-yl)oxy)-3-cyanophenyl)pyridin-2-yl)-2-fluorocyclopropane-1-carboxamide]
- IC50: 0.0119 µM

SMILES: C=C(C)C[C@](C)(N)COc1ccc(-c2ccnc(NC(C)=O)c2)cc1C(N)=O [Compound 23, (S)-5-(2-acetamidopyridin-4-yl)-2-((2-amino-2,4-dimethylpent-4-en-1-yl)oxy)benzamide]
- IC50: 0.0386 µM

SMILES: C=C(C)C[C@](C)(N)COc1ccc(-c2ccnc(NC(=O)C3CC(F)(F)C3)c2)cc1C#N [Compound 24, (S)-N-(4-(4-((2-amino-2,4-dimethylpent-4-en-1-yl)oxy)-3-cyanophenyl)pyridin-2-yl)-3,3-difluorocyclobutane-1-carboxamide]
- IC50: 0.0225 µM

SMILES: C=C(C)C[C@](C)(N)COc1ccc(-c2ccnc(NC(C)=O)c2)nc1C(F)F [Compound 15, (S)-N-(5-((2-amino-2,4-dimethylpent-4-en-1-yl)oxy)-6-(difluoromethyl)-[2,4′-bipyridin]-2′-yl)acetamide]
- IC50: 0.0198 µM

SMILES: COC(=O)Nc1cc(-c2cc(C(F)(F)F)c(OCC(C)(N)C=C(C)C)cn2)ccn1 (stereo not drawn) [Compound 27, Methyl (5-((2-amino-2,4-dimethylpent-3-en-1-yl)oxy)-4-(trifluoromethyl)-[2,4′-bipyridin]-2′-yl)carbamate]
- IC50: 0.0431 µM

SMILES: COC(=O)Nc1cc(-c2cnc(OC[C@@](C)(N)CC(C)(C)F)c(C(F)F)c2)ccn1 [Compound 18, (S)-methyl-(6-((2-amino-4-fluoro-2,4-dimethylpentyl)oxy)-5-(difluoromethyl)-[3,4′-bipyridin]-2′-yl)carbamate]
- IC50: 0.00955 µM

SMILES: C=C(C)C[C@](C)(N)COc1ccc(-c2ccnc(NC(=O)[C@@H]3CC3(F)F)c2)cc1C#N [Compound 30, (1S)-N-(4-(4-{[(2S)-2-amino-2,4-dimethylpent-4-en-1-yl]oxy}-3-cyanophenyl)pyridin-2-yl)-2,2-difluorocyclopropane-1-carboxamide]
- IC50: 0.00908 µM

SMILES: CC(C)(F)CC(C)(N)COc1ccc(-c2ccnc(C(F)F)c2)nc1C(F)F (stereo not drawn) [Compound 1, 1-((2′,6-bis(difluoromethyl)-[2,4′-bipyridin]-5-yl)oxy)-4-fluoro-2,4-dimethylpentan-2-amine]
- IC50: 0.0147 µM

SMILES: C=C(C)C[C@](C)(N)COc1ccc(-c2ccnc(NC(=O)OC)c2)nc1C [Compound 10, Methyl (S)-(5-((2-amino-2,4-dimethylpent-4-en-1-yl)oxy)-6-methyl-[2,4′-bipyridin]-2′-yl)carbamate]
- IC50: 0.0115 µM

SMILES: CC(=O)Nc1cc(-c2ccc(OC[C@@](C)(N)CC(C)(C)F)c(C#N)c2)ccn1 [Compound 6, (S)-N-(4-(4-((2-amino-4-fluoro-2,4-dimethylpentyl)oxy)-3-cyanophenyl)pyridin-2-yl)acetamide]
- IC50: 0.011 µM

SMILES: C=C(C)C[C@](C)(N)COc1ncc(-c2ccnc(NC(=O)OC)c2)cc1C(F)F [Compound 17, (S)-methyl-(6-((2-amino-2,4-dimethylpent-4-en-1-yl)oxy)-5-(difluoromethyl)-[3,4′-bipyridin]-2′-yl)carbamate]
- IC50: 0.0268 µM

SMILES: COC(=O)Nc1cc(-c2ccc(OC[C@@](C)(N)CC3CC3)c(C(F)F)n2)ccn1 [Compound 31, Methyl (S)-(5-(2-amino-3-cyclopropyl-2-methylpropoxy)-6-(difluoromethyl)-[2,4′-bipyridin]-2′-yl)carbamate]
- IC50: 0.0109 µM

SMILES: CC(=O)Nc1cc(-c2ccc(OC[C@@](C)(N)CC(C)(O)CO)c(C#N)c2)ccn1 (stereo partly drawn) [Compound 28, N-(4-(4-(((2S)-2-amino-4,5-dihydroxy-2,4-dimethylpentyl)oxy)-3-cyanophenyl)pyridin-2-yl)acetamide]
- IC50: 0.00596 µM

SMILES: C[C@@](N)(COc1ccc(-c2ccnc(C(F)F)c2)nc1C(F)F)CC1CC1 [Compound 26, (S)-1-((2′,6-bis(difluoromethyl)-[2,4′-bipyridin]-5-yl)oxy)-3-cyclopropyl-2-methylpropan-2-amine]
- IC50: 0.011 µM
